Source: ChEMBL document CHEMBL4689842, “EUbOPEN Chemogenomics Library wave 1” (2021)

Columns and labels:
Format in all cases: toxicity, cell-based
U2OS = test: Incucyte cell viability with U2OS; settings: human, 10 µM, compound concentration 10 uM
HEK-293T = test: Incucyte cell viability with HEK293T; settings: human, 10 µM, compound concentration 10 uM
Fibroblast = test: Incucyte cell viability with human fibroblast; settings: 10 µM, compound concentration 10 uM
[1] = 0 h, replicate number 1, timepoint 0 hours
[2] = 12 h, replicate number 1, timepoint 12 hours
[3] = 12 h, replicate number 2, timepoint 12 hours
[4] = 18 h, replicate number 1, timepoint 18 hours
[5] = 24 h, replicate number 1, timepoint 24 hours
[6] = 6 h, replicate number 1, timepoint 6 hours
Further: filed as whole numbers so only -1 and 0 and 1 occur.

## CC1(C)CCC(C)(C)c2cc(NC(=O)c3ccc(C(=O)O)cc3)ccc21 [TAMIBAROTENE]
U2OS; [1]
  Growth Rate: 0
U2OS; [2]
  Growth Rate: 0
U2OS; [3]
  Growth Rate: 1
U2OS; [4]
  Growth Rate: 0
U2OS; 18 h, replicate number 2, timepoint 18 hours
  Growth Rate: 1
U2OS; [5]
  Growth Rate: 1
HEK-293T; [1]
  Growth Rate: 0
HEK-293T; [6]
  Growth Rate: 1
HEK-293T; [2]
  Growth Rate: 1
HEK-293T; [4]
  Growth Rate: 1
HEK-293T; [5]
  Growth Rate: 1
Fibroblast; [1]
  Growth Rate: 0
Fibroblast; [6]
  Growth Rate: 0
Fibroblast; [2]
  Growth Rate: 0
Fibroblast; [3]
  Growth Rate: 1
Fibroblast; [4]
  Growth Rate: 0
Fibroblast; [5]
  Growth Rate: 1
